Test results as given in patent US20040204342A1, “Orthodontic remedies containing” (CHUGAI SEIYAKU KABUSHIKI KAISHA, priority 1996, published 2004).

Legend:
Type in all cases: in vivo, rat
male Wister rats [1] = assay: Histological findings of periodontium and alveolar bone in closed coil spring tooth movement; conditions: continuous systemic infusion group
Description: It has been already clarified that the continuous administration of PTH and the intermittent administration thereof differ from each other in their effect on bones. Thus, attempts were made to examine how PTH administered by either method would affect the experimental tooth movement. Use was made of 12 male Wister rats weighing 350 to 400 g. In the continuous PTH-administration group, an osmotic pump (2ML2, manufactured by Alzet, Palo Alto, Calif., USA) was subcutaneously implanted into the dorsal part of each rat followed by the continuous infusion of hPTH (1-34) (manufactured by Peptide Institute Inc., Mino) in a dose of 0.4 μg/100 g body weight/day or 4 μg/100 g body weight/day. As the control groups, use was made of 2 groups including (1) one to which the vehicle was continuously infused, and (2) an intermittent administration group to which 4 μg/100 g body weight/day of PTH was subcutaneously injected into the dorsal part once a day. From the next day of the initiation of the PTH-administration, an ultra-elastic closed coil spring (509-21, manufactured by Tomy International, K.K., Tokyo) was put between the upper incisive tooth and the right first molar M1 followed by the mesial traction of M1 for 12 days (FIG. 6-A, B). After the initiation of the shifting, the precise impression of the upper jaw was taken every 3 days by using a silicone impression material (Exafine, manufactured by GC, Tokyo) and the distance between the first molar and the second molar (M2) was measured on ultra-hard gypsum models (FIG. 6-C). After the completion of shifting over 12 days, arterial blood was collected from the abdominal aorta and various serum parameters were measured. After sacrificing each rat, the upper jaw and the right thickening bone were taken out. […] The bone mineral content and bone mineral density of the isolated the femur were measured by dual-x-ray absorptometry (DCS-600, manufactured by Aloka, Tokyo, Japan). […]

male Wister rats [2] = assay: Experimental tooth movement by closed coil spring (mesial shift of M1), local administration of sustained release dosage form; conditions: 1 μg/400 g locally injected every 2 days (sustained release), FIG. 15
Description: There are two methods for experimental tooth movement, i.e., one wherein an elastic band (made of rubber) is inserted between teeth and another one wherein a closed coil spring for orthodontics is used. The closed coil spring employed herein is Sentalloy closed coil spring 509-21 (made of Ni—Ti, manufactured by Tomy International K.K.) which can give an almost constant traction force of about 30 g within a spring-elongation range of 2 to 3 mm. […] When the initial elongation of the spring is regulated within the above-mentioned range, therefore, a constant force can be applied regardless of orthodontic tooth movement. When a rubber substance is inserted between molars, an extremely large force is applied immediately after the insertion but scarcely any force is applied after the target tooth is shifted by 0.5 mm. Accordingly, either the method with the insertion of an elastic (rubber) band or another one with the use of a closed coil spring may be used in experimental tooth movement within a short period of time. When a tooth is to be shifted over a long time, however, it is appropriate to use the latter method wherein the first molar is mesially shifted by elongating a closed coil spring. The method with the insertion of an elastic (rubber) band was employed in Example 1, while another method with the use of a closed coil spring was employed in Example 2. […]

male Wister rats [3] = assay: Experimental tooth movement by closed coil spring (mesial shift of M1), systemic continuous infusion or intermittent injection; conditions: for mesial shift of M1 compared with control group: day 3
Description: (§1) There are two methods for experimental tooth movement, i.e., one wherein an elastic band (made of rubber) is inserted between teeth and another one wherein a closed coil spring for orthodontics is used. The closed coil spring employed herein is Sentalloy closed coil spring 509-21 (made of Ni—Ti, manufactured by Tomy International K.K.) which can give an almost constant traction force of about 30 g within a spring-elongation range of 2 to 3 mm. […] When the initial elongation of the spring is regulated within the above-mentioned range, therefore, a constant force can be applied regardless of orthodontic tooth movement. When a rubber substance is inserted between molars, an extremely large force is applied immediately after the insertion but scarcely any force is applied after the target tooth is shifted by 0.5 mm. Accordingly, either the method with the insertion of an elastic (rubber) band or another one with the use of a closed coil spring may be used in experimental tooth movement within a short period of time. When a tooth is to be shifted over a long time, however, it is appropriate to use the latter method wherein the first molar is mesially shifted by elongating a closed coil spring. The method with the insertion of an elastic (rubber) band was employed in Example 1, while another method with the use of a closed coil spring was employed in Example 2.
It has been already clarified that the continuous administration of PTH and the intermittent administration thereof differ from each other in their effect on bones. Thus, attempts were made to examine how PTH administered by either method would affect the experimental tooth movement. Use was made of 12 male Wister rats weighing 350 to 400 g. In the continuous PTH-administration group, an osmotic pump (2ML2, manufactured by Alzet, Palo Alto, Calif., USA) was subcutaneously implanted into the dorsal part of each rat followed by the continuous infusion of hPTH (1-34) (manufactured by Peptide Institute Inc., Mino) in a dose of 0.4 μg/100 g body weight/day or 4 μg/100 g body weight/day. As the control groups, use was made of 2 groups including (1) one to which the vehicle was continuously infused, and (2) an intermittent administration group to which 4 μg/100 g body weight/day of PTH was subcutaneously injected into the dorsal part once a day. From the next day of the initiation of the PTH-administration, an ultra-elastic closed coil spring (509-21, manufactured by Tomy International, K.K., Tokyo) was put between the upper incisive tooth and the right first molar M1 followed by the mesial traction of M1 for 12 days (FIG. 6-A, B). After the initiation of the shifting, the precise impression of the upper jaw was taken every 3 days by using a silicone impression material (Exafine, manufactured by GC, Tokyo) and the distance between the first molar and the second molar (M2) was measured on ultra-hard gypsum models (FIG. 6-C). After the completion of shifting over 12 days, arterial blood was collected from the abdominal aorta and various serum parameters were measured. After sacrificing each rat, the upper jaw and the right thickening bone were taken out. The upper jaw was decalcificated and then cut into a paraffin section of 8 μm in thickness involving, in the direction of the major axis, the buccal mesial root and the buccal distal root followed by HE-staining and histological observation. The bone mineral content and bone mineral density of the isolated the femur were measured by dual-x-ray absorptometry (DCS-600, manufactured by Aloka, Tokyo, Japan).

osteoclasts = assay: Osteoclast count in the pressured side of the M1 interradicular septa during teeth separation; conditions: for osteoclast count in the pressured side compared with control group: 10 μg/100 g body weight/day infusion, FIG. 5
Description: (§2) 18 rats were divided into 4 groups including a control group having 6 animals and 3 PTH-infusion groups each having 4 animals. PTH was dissolved in a citric acid-buffered saline containing 0.05% of Tween 80 and introduced into osmotic pumps. Then these pumps were implanted in the subcutus posterior region of the neck of the rats under ether anetheia. PTH was continuously infused into the rats in doses of 1, 3 and 10 μg/100 g body weight/day and the rats were fed with a standard pelletized feed (manufactured by Oriental Yeast Co., Ltd.). To the rats of the control group, vehicles were exclusively administered. 48 hours after implanting, a piece of an elastic band (0.8 mm in thickness) was inserted between the right upper first molar and second molar (between M1 and M2) of each rat under ether anetheia in accordance with the method of Wong-Rothblatt (1954) as shown in FIG. 1(A). On day 3 of the teeth separation, the rat was sacrificed by ether-inhalation. After cutting out the upper jaw, the distance between the adjacent faces of M1 and M2 was measured with the combined use of contact gauges (manufactured by Sun Dental, Osaka) of 50, 100 and 150 μm in thickness (FIGS. 1(B) and (C)). In the case of the control group, a contact gauge of 50 μm could be inserted between M1 and M2. Thus, the interdental distance was calculated by subtracting 50 μm from the measured distance of each animal. […] The upper jaw was fixed in 4% paraformaldehyde, decalcificated in 4% formic acid and then implanted in paraffin. […] Histological examinations were all performed in the pressured side of the M1 interradicular septa and osteoclasts in the area of 300×700 μm^2 in this region were counted (FIG. 1(C)). Osteoclasts were counted based on the fact that they were large multinuclear cells having been stained with eosin and located adjacent to the bone surface. The statistic differences between the control group and the test group was evaluated in accordance with Wilcoxon's rank-sum calibration method. […]

male Wister rats [4] = assay: Histological change in pressured periodontia during teeth separation
Description: 18 rats were divided into 4 groups including a control group having 6 animals and 3 PTH-infusion groups each having 4 animals. PTH was dissolved in a citric acid-buffered saline containing 0.05% of Tween 80 and introduced into osmotic pumps. Then these pumps were implanted in the subcutus posterior region of the neck of the rats under ether anetheia. PTH was continuously infused into the rats in doses of 1, 3 and 10 μg/100 g body weight/day and the rats were fed with a standard pelletized feed (manufactured by Oriental Yeast Co., Ltd.). To the rats of the control group, vehicles were exclusively administered. 48 hours after implanting, a piece of an elastic band (0.8 mm in thickness) was inserted between the right upper first molar and second molar (between M1 and M2) of each rat under ether anetheia in accordance with the method of Wong-Rothblatt (1954) as shown in FIG. 1(A). On day 3 of the teeth separation, the rat was sacrificed by ether-inhalation. After cutting out the upper jaw, the distance between the adjacent faces of M1 and M2 was measured with the combined use of contact gauges (manufactured by Sun Dental, Osaka) of 50, 100 and 150 μm in thickness (FIGS. 1(B) and (C)). In the case of the control group, a contact gauge of 50 μm could be inserted between M1 and M2. Thus, the interdental distance was calculated by subtracting 50 μm from the measured distance of each animal. […] The upper jaw was fixed in 4% paraformaldehyde, decalcificated in 4% formic acid and then implanted in paraffin. Subsequently, these preparations were cut into continuous mesiodistal sections of 8 μm in thickness and stained with hematoxylin and eosin. Histological examinations were all performed in the pressured side of the M1 interradicular septa and osteoclasts in the area of 300×700 μm^2 in this region were counted (FIG. 1(C)). Osteoclasts were counted based on the fact that they were large multinuclear cells having been stained with eosin and located adjacent to the bone surface. The statistic differences between the control group and the test group was evaluated in accordance with Wilcoxon's rank-sum calibration method. Each of the data was expressed in average±SEM. A P value less than 0.05 was regarded as being statistically significant.
32 rats were divided into 2 test groups each having 16 animals. […] To the rats of the control group, vehicles were exclusively administered. 2 days after implanting osmotic pumps, an elastic band was inserted between the right M1 and M2 of each rat. On days 0, 1, 3 and 5 of the teeth separation (i.e., on days 2, 3, 5 and 7 of the PTH infusion), the rats were sacrificed followed by the same procedures as those performed in Experiment 1.

male Wister rats [5] = assay: Experimental tooth movement by elastic band inserted between M1 and M2 (teeth separation), continuous PTH infusion
Description: as §1, §2

[6] = 1 μg/100 g body weight/day and 3 μg/100 g body weight/day groups

human PTH (1-34) [hPTH (1-34)]
bone resorption in the mesial alveolar bone of M1 compared with control group (male Wister rats [1]): energetic bone resorption | bone resorption in the distal side of the alveolar septum (male Wister rats [1]; FIG. 16-B): remarkable bone resorption was observed over a wide range | necrotic tissue in the periodontal membrane, compared with control group (male Wister rats [1]; FIG. 16-B): no such necrotic tissue | tooth movement-promoting effect (male Wister rats [2]; after day 9): more remarkable | mesial M1 shift (male Wister rats [2]; since day 3): tendency that the mesial M1 shift was promoted | tooth shift-promoting effect (male Wister rats [3]; continuous PTH infusion group, after day 9, FIG. 10): observed more remarkably | mesial shift of M1 compared with control group (male Wister rats [3]; continuous PTH infusion group, FIG. 10): slightly significantly promoted | mesial shift of M1 relative to control group (male Wister rats [3]; continuous infusion of 4 μg/100 g body weight/day, day 12): twice | mesial shift of M1 (male Wister rats [3]; continuous infusion of 4 μg/100 g body weight/day, day 12 of tooth movement): 1.01±0.09 mm | shift of M1, dose dependence (male Wister rats [3]; continuous infusion of 0.4 or 4 μg/100 g body weight/day, day 12, FIG. 7): promoted depending on the dose | mesial shift of M1 compared with control group (male Wister rats [3]; intermittent PTH injection group (4 μg/100 g body weight/day s.c. once a day), FIG. 10): slightly significantly promoted | M1 shifting distance compared with control group (male Wister rats [3]; intermittent PTH injection group, after day 6, FIG. 10): no significant difference

B1: human PTH (1-84) (protein, UniProt P01270 32-115, looked up)
Parathyroid hormone: SVSEIQLMHNLGKHLNSMERVEWLRKKLQDVHNFVALGAPLAPRDAGSQRPRKKEDNVLVESHEKSLGEADKADVNVLTKAKSQ
modifications: Parathyroid hormone
notes: recombinant human parathyroid hormone consisting of 84 amino acid residues
osteoclast count in the pressured side compared with control group (osteoclasts; day 5): no significant difference | osteoclast count in the pressured side compared with control group (osteoclasts; from day 1): significant increase | osteoclast count in the pressured side of the periodontia, test groups and control group compared (osteoclasts; 1, 3 and 10 μg/100 g body weight/day infusion (all 3 test groups), elastic band for 3 days, FIG. 4): significant increase | bone resorption compared with vehicle-treated rats (male Wister rats [4]; [6]): bone resorption seemingly arose over wider range | necrotic tissue in the pressured periodontia (male Wister rats [4]; [6]): necrotic tissue was also observed | necrotic tissue in the pressured periodontia (male Wister rats [4]; 10 μg/100 g body weight/day, day 1 of teeth separation): necrotic tissue was observed | necrotic tissue in the pressured periodontia (male Wister rats [4]; 10 μg/100 g body weight/day, day 3 of teeth separation): no necrosis | distance between M1 and M2 compared with control group (male Wister rats [5]; Experiment 1, 10 μg/100 g body weight/day continuous infusion, elastic band for 3 days, FIG. 2): significant increase | teeth separation distance compared with control group (male Wister rats [5]; Experiment 2, 10 μg/100 g body weight/day infusion, day 1, FIG. 3): no significant difference | teeth separation distance compared with control group (male Wister rats [5]; Experiment 2, 10 μg/100 g body weight/day infusion, day 3, FIG. 3): significant increase | teeth separation (male Wister rats [5]; Experiment 2, 10 μg/100 g body weight/day infusion, day 5, FIG. 3): almost reached the limit | dose of PTH infusion achieving the maximum effect on teeth separation (male Wister rats [5]; continuous infusion of 1, 3 and 10 μg/100 g body weight/day, day 3 of teeth separation, FIG. 2): 10 μg/100 g body weight/day
